# Measurements: ChEMBL document CHEMBL4680187, “Optimization of EphA2 antagonists based on a lithocholic acid core led to the identification of UniPR505, a new 3α-carbamoyloxy derivative with antiangiogenetic properties” (Eur J Med Chem, 2020)
# pIC50: −log10 of the molar value. The source made the active and inactive calls. No cut-off for these calls is given here.
# Tests used:
# [1] = tested on: Chorioallantoic membrane; assay: Antiangiogenic activity in Leghorn chicken fertilized egg chorioallantoic membrane assessed as reduction in VEGF stimulated neovascularization at 10 uM measured after 3 days by CAM assay; format: functional, tissue-based; details: Gallus gallus, time 3.0 day
# [2] = tested on: HUVEC; assay: Cytotoxicity against HUVEC cells after 2 to 16 hrs by LDH assay; format: cell-based; details: human, time 2-16 hrs
# [3] = target: T1, Ephrin type-B receptor 4 (Mus musculus, UniProt P54761); assay: Displacement of biotinylated ephrin-B1-Fc from mouse EphB4 Fc preincubated for 1 hr followed by ephrin-B1-FC addition and measured after 4 hrs by ELISA
# T1 sequence (P54761 whole entry): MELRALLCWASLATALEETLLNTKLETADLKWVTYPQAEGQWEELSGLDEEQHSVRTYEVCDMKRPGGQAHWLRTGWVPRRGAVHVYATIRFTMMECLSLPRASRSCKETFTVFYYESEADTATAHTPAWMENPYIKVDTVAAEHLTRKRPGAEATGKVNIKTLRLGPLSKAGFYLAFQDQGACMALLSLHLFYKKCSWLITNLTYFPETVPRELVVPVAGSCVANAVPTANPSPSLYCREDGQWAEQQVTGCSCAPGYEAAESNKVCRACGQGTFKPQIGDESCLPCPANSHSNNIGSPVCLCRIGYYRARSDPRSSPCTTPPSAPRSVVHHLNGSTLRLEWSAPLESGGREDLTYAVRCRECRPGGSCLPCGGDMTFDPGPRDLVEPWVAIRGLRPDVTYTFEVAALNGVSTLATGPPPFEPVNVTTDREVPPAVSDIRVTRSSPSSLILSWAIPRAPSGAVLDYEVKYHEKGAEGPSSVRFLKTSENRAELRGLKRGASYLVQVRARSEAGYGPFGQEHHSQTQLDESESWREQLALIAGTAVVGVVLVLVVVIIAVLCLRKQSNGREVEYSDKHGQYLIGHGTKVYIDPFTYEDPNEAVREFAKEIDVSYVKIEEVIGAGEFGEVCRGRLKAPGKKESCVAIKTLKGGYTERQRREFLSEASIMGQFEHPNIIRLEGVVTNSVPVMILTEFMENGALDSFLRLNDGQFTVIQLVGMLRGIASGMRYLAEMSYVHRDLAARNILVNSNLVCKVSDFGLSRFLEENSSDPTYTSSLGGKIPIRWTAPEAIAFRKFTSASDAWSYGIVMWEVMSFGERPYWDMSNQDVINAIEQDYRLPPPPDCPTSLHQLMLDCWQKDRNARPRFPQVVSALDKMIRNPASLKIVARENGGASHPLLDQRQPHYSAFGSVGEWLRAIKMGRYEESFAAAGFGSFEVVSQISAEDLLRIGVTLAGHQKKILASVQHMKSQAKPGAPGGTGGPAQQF
# [4] = target: T2, Ephrin type-A receptor 8 (Mus musculus, UniProt O09127); assay: Displacement of biotinylated ephrin-A1-Fc from mouse EphA8 Fc preincubated for 1 hr followed by ephrin-A1-FC addition and measured after 4 hrs by ELISA
# T2 sequence (O09127 whole entry): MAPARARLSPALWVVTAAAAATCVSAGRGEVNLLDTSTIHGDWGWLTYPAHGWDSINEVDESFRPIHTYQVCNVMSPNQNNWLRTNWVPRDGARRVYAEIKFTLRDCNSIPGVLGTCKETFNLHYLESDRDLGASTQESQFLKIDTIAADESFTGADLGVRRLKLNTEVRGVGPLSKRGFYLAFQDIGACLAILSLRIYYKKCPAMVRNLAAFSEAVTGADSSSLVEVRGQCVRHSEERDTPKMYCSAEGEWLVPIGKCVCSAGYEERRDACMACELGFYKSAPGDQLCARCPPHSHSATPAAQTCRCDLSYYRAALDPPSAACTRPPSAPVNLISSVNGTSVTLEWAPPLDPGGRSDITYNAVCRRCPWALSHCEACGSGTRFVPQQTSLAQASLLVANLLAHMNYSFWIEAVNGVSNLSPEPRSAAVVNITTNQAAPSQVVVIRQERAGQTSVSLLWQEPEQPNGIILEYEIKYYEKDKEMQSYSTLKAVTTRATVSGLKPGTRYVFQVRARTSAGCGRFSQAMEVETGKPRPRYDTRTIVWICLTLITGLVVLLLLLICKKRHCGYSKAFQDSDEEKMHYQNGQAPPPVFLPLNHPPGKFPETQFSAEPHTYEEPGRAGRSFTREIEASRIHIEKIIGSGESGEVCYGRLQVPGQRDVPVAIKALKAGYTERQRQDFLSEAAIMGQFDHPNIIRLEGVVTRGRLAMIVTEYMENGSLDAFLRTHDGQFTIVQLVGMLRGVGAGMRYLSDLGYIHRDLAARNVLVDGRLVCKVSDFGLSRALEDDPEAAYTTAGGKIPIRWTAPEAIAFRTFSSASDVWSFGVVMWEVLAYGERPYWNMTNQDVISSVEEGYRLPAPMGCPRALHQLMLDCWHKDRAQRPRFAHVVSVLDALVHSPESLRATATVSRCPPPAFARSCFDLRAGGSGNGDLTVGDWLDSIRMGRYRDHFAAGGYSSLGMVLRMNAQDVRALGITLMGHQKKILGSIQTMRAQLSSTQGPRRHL
smiles,measurement,setting,value
CCNC(=O)O[C@@H]1CC[C@@]2(C)[C@H](CC[C@@H]3[C@@H]2CC[C@]2(C)[C@@H]([C@H](C)CCC(=O)N[C@H](CC(=O)O)Cc4c[nH]c5ccccc45)CC[C@@H]32)C1,Activity,[1],Active
same,Activity,[2],Non-Toxic
same,pIC50,[3],< 4.52
same,pIC50,[4],5.11
